Reference: patent US20170050957A1, “4-AMINO-6-(HETEROCYCLIC)PICOLINATES AND 6-AMINO-2-(HETEROCYCLIC)PYRIMIDINE-4-CARBOXYLATES AND THEIR USE AS HERBICIDES” (Dow AgroSciences LLC, priority 2013, published 2017)
Read-outs that look alike come from different tables or passages of the source.

Tests used:
[1] = test system: Key Broadleaf Weed and Crop Species; experiment: Post-emergent Test II herbicidal activity (Table 15); format: in vivo; conditions: post-emergence, 336 h, 14 d; for pest or weed control at 35 g/ha: 35 g ai/ha; for pest or weed control at 70 g/ha: 70 g ai/ha; for pest or weed control at 140 g/ha: 140 g ai/ha
In short: (§1)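 Greenhouse-grown seedlings at first/second true leaf receive a track spray at 187 L/ha, using a highest rate plus two-fold serial dilutions down to 1/16×. Watering is by subirrigation to avoid wash-off. Percent injury (0-100) is judged by eye at 14 d against untreated plants.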

[2] = test system: Key Grass and Sedge Weeds as well as Grass Crops; experiment: Post-emergent Test II herbicidal activity (Table 16); format: in vivo; conditions: post-emergence, 336 h, 14 days after application; for pest or weed control at 35 g/ha: 35 g ai/ha; for pest or weed control at 70 g/ha: 70 g ai/ha; for pest or weed control at 140 g/ha: 140 g ai/ha
In short: as §1

[3] = Abutilon theophrasti, velvetleaf (Abutilon theophrasti), read-out: Visual Growth Reduction (%) 14 Days After Application, ABUTH
[4] = Amaranthus retroflexus, redroot pigweed (Amaranthus retroflexus), read-out: Visual Growth Reduction (%) 14 Days After Application, AMARE
[5] = Brassica napus, oilseed rape, canola (Brassica napus), read-out: Visual Growth Reduction (%) 14 Days After Application, BRSNN
[6] = Chenopodium album, lambsquarters (Chenopodium album), read-out: Visual Growth Reduction (%) 14 Days After Application, CHEAL
[7] = Euphorbia heterophylla, wild poinsettia (Euphorbia heterophylla), read-out: Visual Growth Reduction (%) 14 Days After Application, EPHHL
[8] = Helianthus annuus, sunflower (Helianthus annuus), read-out: Visual Growth Reduction (%) 14 Days After Application, HELAN
[9] = Cyperus esculentus, yellow nutsedge (Cyperus esculentus), read-out: Visual Growth Reduction (%) 14 Days After Application CYPES
[10] = Echinochloa crus-galli, barnyardgrass (Echinochloa crus-galli), read-out: Visual Growth Reduction (%) 14 Days After Application ECHCG
[11] = Oryza sativa, rice (Oryza sativa), read-out: Visual Growth Reduction (%) 14 Days After Application ORYSA
[12] = Setaria faberi, giant foxtail (Setaria faberi), read-out: Visual Growth Reduction (%) 14 Days After Application SETFA
[13] = Triticum aestivum, wheat, spring (Triticum aestivum), read-out: Visual Growth Reduction (%) 14 Days After Application TRZAS
[14] = Zea mays, maize, corn (Zea mays), read-out: Visual Growth Reduction (%) 14 Days After Application ZEAMX

Structure (SMILES)	pest or weed control at 35 g/ha [1, 3]	pest or weed control at 70 g/ha [1, 3]	pest or weed control at 140 g/ha [1, 3]	pest or weed control at 35 g/ha [1, 4]	pest or weed control at 70 g/ha [1, 4]	pest or weed control at 140 g/ha [1, 4]	pest or weed control at 35 g/ha [1, 5]	pest or weed control at 70 g/ha [1, 5]	pest or weed control at 140 g/ha [1, 5]	pest or weed control at 35 g/ha [1, 6]	pest or weed control at 70 g/ha [1, 6]	pest or weed control at 140 g/ha [1, 6]	pest or weed control at 35 g/ha [1, 7]	pest or weed control at 70 g/ha [1, 7]	pest or weed control at 140 g/ha [1, 7]	pest or weed control at 35 g/ha [1, 8]	pest or weed control at 70 g/ha [1, 8]	pest or weed control at 140 g/ha [1, 8]	pest or weed control at 35 g/ha [2, 9]	pest or weed control at 70 g/ha [2, 9]	further results
Nc1c(F)c(-c2ccc3cn[nH]c3c2)nc(C(=O)O)c1Cl [Compound 4.06]	0 to 29%	0 to 29%	0 to 29%	75 to 84%	95 to 100%	95 to 100%	60 to 74%	75 to 84%	85 to 94%	0 to 29%	45 to 59%	95 to 100%	45 to 59%	60 to 74%	85 to 94%	45 to 59%	60 to 74%	75 to 84%	0 to 29%	0 to 29%	pest or weed control at 140 g/ha [2, 9]: 0 to 29%; pest or weed control at 35 g/ha [2, 10]: 0 to 29%; pest or weed control at 70 g/ha [2, 10]: 45 to 59%; pest or weed control at 140 g/ha [2, 10]: 75 to 84%; pest or weed control at 35 g/ha [2, 11]: 0 to 29%; pest or weed control at 70 g/ha [2, 11]: 0 to 29%; pest or weed control at 140 g/ha [2, 11]: 0 to 29%; pest or weed control at 35 g/ha [2, 12]: 0 to 29%; pest or weed control at 70 g/ha [2, 12]: 0 to 29%; pest or weed control at 140 g/ha [2, 12]: 45 to 59%; pest or weed control at 35 g/ha [2, 13]: 0 to 29%; pest or weed control at 70 g/ha [2, 13]: 0 to 29%; pest or weed control at 140 g/ha [2, 13]: 0 to 29%; pest or weed control at 35 g/ha [2, 14]: 0 to 29%; pest or weed control at 70 g/ha [2, 14]: 0 to 29%; pest or weed control at 140 g/ha [2, 14]: 0 to 29%; melting point: > 300 °C
COC(=O)c1nc(-c2ccc3scnc3c2)c(F)c(N)c1Cl [Compound 6.01, Methyl 4-amino-6-(benzo[d]thiazol-5-yl)-3-chloro-5-fluoropicolinate]	85 to 94%	85 to 94%	85 to 94%	85 to 94%	95 to 100%	95 to 100%	95 to 100%	95 to 100%	95 to 100%	95 to 100%	95 to 100%	95 to 100%	0 to 29%	85 to 94%	95 to 100%	85 to 94%	85 to 94%	85 to 94%	45 to 59%	45 to 59%	pest or weed control at 140 g/ha [2, 9]: 45 to 59%; pest or weed control at 35 g/ha [2, 10]: 0 to 29%; pest or weed control at 70 g/ha [2, 10]: 45 to 59%; pest or weed control at 140 g/ha [2, 10]: 60 to 74%; pest or weed control at 35 g/ha [2, 11]: 0 to 29%; pest or weed control at 70 g/ha [2, 11]: 0 to 29%; pest or weed control at 140 g/ha [2, 11]: 0 to 29%; pest or weed control at 35 g/ha [2, 12]: 0 to 29%; pest or weed control at 70 g/ha [2, 12]: 0 to 29%; pest or weed control at 140 g/ha [2, 12]: 0 to 29%; pest or weed control at 35 g/ha [2, 13]: 0 to 29%; pest or weed control at 70 g/ha [2, 13]: 0 to 29%; pest or weed control at 140 g/ha [2, 13]: 0 to 29%; pest or weed control at 35 g/ha [2, 14]: 0 to 29%; pest or weed control at 70 g/ha [2, 14]: 0 to 29%; pest or weed control at 140 g/ha [2, 14]: 0 to 29%; melting point: 216 °C
